# Test results published in US20050031557A1, “Oral administration of beta-carotene, lycopene and lutein for human skin protection” (priority 1999, published 2005).
# Test system: healthy skin of light type II
# Assay: Photoprotection study in volunteers with oral carotinoid supplementation over 12 weeks
# Format: in vivo, human
# Experimental: The carotinoid absorption and photoprotection studies were carried out using a panel of 36 volunteers with healthy skin of light type II (Fitzpatrick & Pathak test). The starting values for each volunteer were determined at the beginning of the 12-week study. An interim study was conducted after 6 weeks and the final study after 12 weeks. The volunteers were divided into three groups of twelve who received the following daily doses: • 1st group: 25 mg Betatene® (corresponds to 24 mg β-carotene) • 2nd group: 8.3 mg Betatene® (corresponds to 8 mg β-carotene), 8 mg lycopene, 8 mg lutein (Xangold®) • 3rd group: placebo capsules.
# The carotinoids were administered in soft gelatine capsules with 140 mg soybean oil.
# The concentration of β-carotene, lycopene and lutein in the skin was determined by reflection spectrometry which was carried out on an area of 1 cm^2 of the forehead, the back of the hand, the palm of the hand, the inside of the lower arm and the back. The change in color of the skin during supplementation was differentiated by a Minolta chromameter (L, a, b system) into reddening of the skin (a values), yellow component (b values) and lightness of the skin (L values). The concentration of β-carotene, lycopene and lutein in the serum was determined by high-pressure liquid chromatography (HPLC). […]
compound,measurement,setting,value
CC1=C(/C=C/C(C)=C/C=C/C(C)=C/C=C/C=C(C)/C=C/C=C(C)/C=C/C2=C(C)CCCC2(C)C)C(C)(C)CCC1 [β-carotene],photoprotection of the skin in relation to the blank value (in words),"12 weeks of daily oral dosing, versus placebo group 3",doubles the photoprotection of the skin
same,Photoprotection,"average of 12 volunteers per group after 12 weeks of daily oral dosing in soft gelatine capsules with soybean oil, relative to blank value (group 3, no carotinoids = 100), group 1: 24 mg β-carotene, group 2: 8 mg each of β-carotene, lycopene, lutein",200 %-rel.
